Assays:
PD-1/PD-L1 complex = PD-1/PD-L1 complex (Homo sapiens, UniProt Q9NZQ7); conditions: for IC50: read-out: IC50 (nM), SAR toward PD-L1 based on the HTRF methodology; for IC50 / IC50 (nM), SAR toward PD-L1 based on the HTRF methodology: 5 nM hPD-L1, 50 nM hPD-1, 10f, 10l, 10p IC50 measured with 6 concentrations, remaining compounds estimated from scouting mode (50 and 5 nM) by translation of average Hill's fits; for activity towards dissociating the PD-1/PD-L1 complex: one-point experiment at 50 and 5 nM concentrations of each inhibitor
Method: Homogenous Time Resolved Fluorescence
HTRF was performer using the certified Cis-Bio assay according to the manufacturer’s guidelines.
experiments were performed at 5 nM of hPD-L1 and 50 nM of hPD-1 in the final formulation at 20 µL final
After mixing all components according to Cis-Bio protocol, the plate was left for 1h incubation
at room temperature followed by TR-FRET measurement on Tecan Spark 20M. To determine the activity of tested
compounds data was collected for 2 different concentrations of the ligand: 50 nM and 5 nM in the final volume.
All measurements were performed on two individual
dilution series, unless states otherwise. Collected data was background subtracted on the negative control,
normalized on the positive control, averaged and for IC50 determination fitted with normalized Hill’s equation to
determine the IC50 value using Mathematica 12. For remaining compounds, which were measured in scouting
mode, the inhibitory constants were approximated by translation of the average Hill’s fits of fully described
compounds to match the experimental datapoints. Since all compounds reported here are closely related, the slope
of Hill’s fit that determines the shape of the curve is therefore similar across them.

human PD-L1 (hPD-L1) = molecular target: T1, human PD-L1 (hPD-L1) (Homo sapiens, UniProt Q9NZQ7); assay: 1H NMR titration experiment with hPD-L1; type: binding; conditions: molar ratio of protein to inhibitor 1 : 1; PBS pH 7.4, 0.2 mM PD-L1
T1 construct: PD-L1 gene (amino acids 18-134); made in house
Method: The corresponding behaviour is characteristic of hPD-L1 oligomerization, previously observed by our group with BMS reference compounds.[20]
Fig. 2 Aliphatic part of the ^1H NMR spectra of PD-L1 with tetrazole-based inhibitors. ^1H NMR spectra of hPD-L1 protein (blue), PD-L1 and compounds: (A) 10f, (B) 10p, and (C) 10l in protein to inhibitor molar ratios of 1 : 1 (red) and 1 : 10 (green), respectively.
NMR spectra were recorded in PBS pH 7.4 containing 10% (v/v) of D2O added to the samples to provide the lock signal. Water suppression was carried out using the WATERGATE pulse sequence. All the spectra were recorded at 300 K using a Bruker Avance III 600 MHz spectrometer. The spectra were recorded at the protein/ligand at the molar ratio 1:1 and 1:10. The sample were prepared by adding the appropriate amounts of inhibitor, from 50 mM ligand stock solution in DMSO-d6, to the protein solution of PD-L1 at a concentration of 0.2 mM. Spectra were visualized using TopSpin 3.2
Protein expression and purification
E. coli strain BL21 was transformed with pET-21b plasmid carrying PD-L1 gene (amino acids 18-134). The bacteria were cultured in LB at 37°C until OD600nm of 0.6 when the recombinant protein production was induced with 1 mM IPTG. The protein production was continued overnight. Inclusion bodies were collected by centrifugation, washed twice with 50 mM Tris-HCl pH 8.0 containing 200 mM NaCl, 10 mM EDTA, 10 mM 2-mercaptoethanol and 0.5% Triton X-100, followed by a single wash with the same buffer but with no Triton X-100. The washed inclusion bodies were resuspended overnight in 50 mM Tris-HCl pH 8.0, 6 M GuHCl, 200 mM NaCl and 10 mM 2-mercaptoethanol and clarified with centrifugation. Refolding of PD-L1 was performed by drop-wise dilution into 0.1 M Tris-HCl pH 8.0 containing 1 M L-arginine hydrochloride, 0.25 mM oxidized glutathione and 0.25 mM reduced glutathione. […]
7.4. The quality of the refolded protein was evaluated by SDS-PAGE and NMR. […]

PD-L1 = system: PD-L1; set-up: method as in PMID 35585982; conditions: printed in Fig. 1B, patented PD-L1 dimerizers by Maxinovel Pharma; cited from earlier work

Sequence of PD-1/PD-L1 complex (Q9NZQ7 19-238 limits assumed, one chain of several): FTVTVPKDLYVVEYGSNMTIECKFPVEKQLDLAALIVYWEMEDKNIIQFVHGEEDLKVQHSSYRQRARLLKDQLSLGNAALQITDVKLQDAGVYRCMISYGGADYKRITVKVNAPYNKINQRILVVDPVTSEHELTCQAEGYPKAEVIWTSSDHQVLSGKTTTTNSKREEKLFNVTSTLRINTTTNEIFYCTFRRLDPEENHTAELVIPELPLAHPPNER
T1 sequence (Q9NZQ7 18-134): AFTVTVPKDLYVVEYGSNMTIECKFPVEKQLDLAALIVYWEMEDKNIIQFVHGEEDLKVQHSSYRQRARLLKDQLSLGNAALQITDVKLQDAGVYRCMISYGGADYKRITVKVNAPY

SMILES | IC50 (PD-1/PD-L1 complex) [nM] | IC50 (nM), SAR toward PD-L1 based on the HTRF methodology (PD-1/PD-L1 complex) | other results
Cc1c(/C=C/n2nnnc2C(C)NCCCO)cccc1-c1ccccc1 (centres unmarked) [10g] | 1800 | – | –
Cc1c(/C=C/n2nnnc2CN2CCCCOC2)cccc1-c1ccccc1 [10i] | 460 | – | –
CCNCc1nnnn1/C=C/c1cccc(-c2ccccc2)c1C [10f] | 408 | – | activity towards dissociating the PD-1/PD-L1 complex (PD-1/PD-L1 complex): better activity; hPD-L1 oligomerization upon addition of the ligand (broadening of hPD-L1 proton signals) (human PD-L1 (hPD-L1)): protein oligomerization
Cc1c(/C=C/n2nnnc2CN2CCCOC2)cccc1-c1ccccc1 [10l] | 944 | – | activity towards dissociating the PD-1/PD-L1 complex (PD-1/PD-L1 complex): better activity; hPD-L1 oligomerization upon addition of the ligand (broadening of hPD-L1 proton signals) (human PD-L1 (hPD-L1)): protein oligomerization
Cc1c(/C=C/c2cc(CNC(C)(CO)C(=O)O)ccc2C(F)(F)F)cccc1-c1ccc2c(c1)OCCO2 (centres unmarked) [MAX-10181] | – | – | IC50 (PD-L1): 18 nM
Cc1c(/C=C/n2nnnc2CNCCCCO)cccc1-c1ccc2c(c1)OCCO2 [10o] | 1130 | – | –
Cc1c(/C=C/n2nnnc2CN[C@]23CC4CC(C[C@@](O)(C4)C2)C3)cccc1-c1ccccc1 [10h] | – | Inactive | –
Cc1c(/C=C/n2nnnc2CN2CCOC2)cccc1-c1ccccc1 [10k] | 1000 | – | –
Cc1c(/C=C/n2nnnc2CN[C@]23CC4CC(C[C@@](O)(C4)C2)C3)cccc1-c1ccc2c(c1)OCCO2 [10m] | – | Inactive | –
Cc1c(/C=C/n2nnnc2C(NCc2ccncc2)C2CC2)cccc1-c1ccccc1 (centres unmarked) [10d] | 1770 | – | –
Cc1c(/C=C/n2nnnc2C(CCl)NCc2ccco2)cccc1-c1ccccc1 (centres unmarked) [10c] | – | Inactive | –
Cc1c(/C=C/n2nnnc2CNCCO)cccc1-c1ccc2c(c1)OCCO2 [10q] | – | Inactive | –
Cc1c(/C=C/n2nnnc2CNCCCCCO)cccc1-c1ccc2c(c1)OCCO2 [10n] | 2850 | – | –
Cc1c(/C=C/n2nnnc2C(CC(C)C)NCCN2CCOCC2)cccc1-c1ccccc1 (centres unmarked) [10a] | – | Inactive | –
Cc1c(/C=C/n2nnnc2CNCC(C)(C)C)cccc1-c1ccccc1 [10e] | – | Inactive | –
Cc1c(COc2cc(OCc3cccc(C#N)c3)c(CN3C[C@H](O)C[C@@H]3C(=O)O)cc2Cl)cccc1-c1ccc2c(c1)OCCO2 [BMS-1166, reference compound] | – | – | undissociated PD-1/PD-L1 complex (PD-1/PD-L1 complex; one-point experiment, 50 and 5 nM concentrations of inhibitor): 42.1 ± 6.4%
Cc1c(/C=C/n2nnnc2CNCCCCCO)cccc1-c1ccccc1 [10j] | 1840 | – | –
COc1cccc(CNC(c2nnnn2/C=C/c2cccc(-c3ccccc3)c2C)C(C)C)c1OC (centres unmarked) [10b] | – | Inactive | –
Cc1c(/C=C/n2nnnc2CN2CCCOC2)cccc1-c1ccc2c(c1)OCCO2 [10r] | 1130 | – | –
Cc1c(/C=C/n2nnnc2C(C)NCCCO)cccc1-c1ccc2c(c1)OCCO2 (centres unmarked) [10p] | 254 | – | activity towards dissociating the PD-1/PD-L1 complex (PD-1/PD-L1 complex): better activity; hPD-L1 oligomerization upon addition of the ligand (broadening of hPD-L1 proton signals) (human PD-L1 (hPD-L1)): protein oligomerization
